Experiment: xn = mol fraction of the nth substance listed
Details: 298.15 K, 100 kPa

Row | SMILES | viscosity (x1 = 1) [mPa·s] | viscosity (x1 = 0.2008) [mPa·s] | viscosity (x1 = 0.4356) [mPa·s] | viscosity (x1 = 0.494) [mPa·s] | viscosity (x1 = 0.5982) [mPa·s] | viscosity (x1 = 0.6996) [mPa·s] | viscosity (x1 = 0.8) [mPa·s] | viscosity (x1 = 0.9025) [mPa·s] | viscosity (x2 = 0.1009) [mPa·s] | viscosity (x2 = 0.2031) [mPa·s] | viscosity (x2 = 0.2951) [mPa·s] | viscosity (x2 = 0.4027) [mPa·s] | viscosity (x2 = 0.5989) [mPa·s] | viscosity (x2 = 0.8024) [mPa·s] | viscosity (x2 = 0.8996) [mPa·s]
1 | CC[n+]1ccn(C)c1.O=S(=O)([N-]S(=O)(=O)C(F)(F)F)C(F)(F)F + CCCC[n+]1ccn(C)c1.CCOS(=O)(=O)[O-] | 32.55 |  |  |  |  |  |  |  |  |  |  |  |  |  | 
2 | CC[n+]1ccn(C)c1.O=S(=O)([N-]S(=O)(=O)C(F)(F)F)C(F)(F)F + CCOS(=O)(=O)[O-].CC[n+]1ccn(C)c1 | 32.55 | 90.6 | 72.5 | 67.8 | 58.31 | 50.07 | 43.24 | 37.67 |  |  |  |  |  |  | 
3 | CCCC[n+]1ccn(C)c1.CCOS(=O)(=O)[O-] + CC[n+]1ccn(C)c1.O=S(=O)([N-]S(=O)(=O)C(F)(F)F)C(F)(F)F |  |  |  |  |  |  |  |  | 212.4 | 172.4 | 139.9 | 109.3 | 69.7 | 47.55 | 39.59
